# Experimental data: publication PMC5444859 (PLoS Pathogens, 2017)
# Biological target: CASV L-Cterm (CAS virus, UniProt J7HBG8)
# Type: binding
smiles,measurement,value
C[n+]1cn([C@@H]2O[C@H](COP(=O)(O)OP(=O)(O)OP(=O)(O)O)[C@@H](O)[C@H]2O)c2nc(N)[nH]c(=O)c21 [m^7GTP],"X-ray crystallography, crystal soaking",the cap-analogue was bound to F1839 at the periphery of the β-sheet
